Data reported in patent publication US12540129B2, “KIF18A inhibitors” (AMGEN INC., priority 2019, dated 2026).

target: T1, Recombinant human KIF18A (1-467 His-tagged) protein (Homo sapiens, UniProt Q8NI77); test: KIF18A Enzyme Assay: microtubule-stimulated ATPase activity (ADP-Glo); format: biochemical; conditions: 30 nM KIF18A, 75 μM ATP
T1 construct: Recombinant human KIF18A (1-467 His-tagged) protein; His; made in house
How it was run: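 ADP-Glo luminescence reports ADP produced by His-tagged human KIF18A motor domain (1-467, insect-cell expressed) with microtubules and ATP.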

T1 sequence (Q8NI77 1-467): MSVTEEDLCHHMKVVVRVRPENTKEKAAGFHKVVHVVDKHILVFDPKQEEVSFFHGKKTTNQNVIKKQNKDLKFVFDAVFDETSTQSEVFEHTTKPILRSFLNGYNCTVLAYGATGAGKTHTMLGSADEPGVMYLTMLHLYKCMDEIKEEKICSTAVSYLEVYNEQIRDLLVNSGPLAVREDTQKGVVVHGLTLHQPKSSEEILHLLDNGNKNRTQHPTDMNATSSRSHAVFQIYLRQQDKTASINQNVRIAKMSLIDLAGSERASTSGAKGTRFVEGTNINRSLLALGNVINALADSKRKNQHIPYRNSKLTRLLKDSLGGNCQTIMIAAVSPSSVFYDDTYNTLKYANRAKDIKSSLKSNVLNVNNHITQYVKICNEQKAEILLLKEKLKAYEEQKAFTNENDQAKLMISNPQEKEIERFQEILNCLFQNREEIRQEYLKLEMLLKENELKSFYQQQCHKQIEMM
T1 sequence (P02550 whole entry partner): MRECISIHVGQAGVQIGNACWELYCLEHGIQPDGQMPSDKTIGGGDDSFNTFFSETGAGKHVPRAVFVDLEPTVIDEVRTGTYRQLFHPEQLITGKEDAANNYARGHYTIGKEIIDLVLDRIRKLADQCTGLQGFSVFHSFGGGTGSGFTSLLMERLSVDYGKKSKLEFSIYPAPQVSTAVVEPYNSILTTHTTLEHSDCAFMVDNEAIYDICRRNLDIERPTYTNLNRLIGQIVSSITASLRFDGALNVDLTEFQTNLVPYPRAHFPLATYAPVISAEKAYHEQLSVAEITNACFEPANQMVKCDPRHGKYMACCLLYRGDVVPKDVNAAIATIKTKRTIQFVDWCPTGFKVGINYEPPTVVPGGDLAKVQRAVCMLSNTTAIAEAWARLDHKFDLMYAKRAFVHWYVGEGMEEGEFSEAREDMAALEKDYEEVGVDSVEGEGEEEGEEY
T1 sequence (P02554 whole entry partner): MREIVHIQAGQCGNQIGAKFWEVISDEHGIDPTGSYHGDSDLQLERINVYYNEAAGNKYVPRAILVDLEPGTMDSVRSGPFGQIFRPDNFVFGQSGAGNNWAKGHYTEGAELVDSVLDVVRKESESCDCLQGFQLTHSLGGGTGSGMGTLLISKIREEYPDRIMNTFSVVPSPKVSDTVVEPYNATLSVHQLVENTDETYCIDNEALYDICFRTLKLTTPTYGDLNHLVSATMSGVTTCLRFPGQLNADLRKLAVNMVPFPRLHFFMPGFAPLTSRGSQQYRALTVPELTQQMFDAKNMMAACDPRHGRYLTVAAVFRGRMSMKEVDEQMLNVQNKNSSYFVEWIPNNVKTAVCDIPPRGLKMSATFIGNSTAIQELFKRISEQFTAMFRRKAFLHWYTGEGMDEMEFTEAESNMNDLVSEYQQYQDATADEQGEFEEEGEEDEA

Compound	IC50
CC(C)(C)NS(=O)(=O)c1cccc(NC(=O)c2ccc(NC3COC3)nc2N2CCC3(CC2)CC3)c1 [Example 102-25, N-(3-(N-(tert-butyl)sulfamoyl)phenyl)-6-(oxctan-3-ylamino)-2-(6-azaspiro[2.5]octan-6-yl)nicotinamide]	84 nM
COCCNc1ccc(C(=O)Nc2cccc(S(=O)(=O)C3CCCC3)c2)c(N2CCC3(CC2)CC3)n1 [Example 103-1, N-(3-(cyclopentylsulfonyl)phenyl)-6-((2-methoxyethyl)amino)-2-(6-azaspiro[2.5]octan-6-yl)nicotinamide]	60 nM
O=C(Nc1cccc(S(=O)(=O)N2CCC(F)(F)CC2)c1)c1cccnc1N1CCC2(CCC2)CC1 [Example 100-6, N-(3-((4,4-difluoropiperidin-1-yl)sulfonyl)phenyl)-2-(7-azaspiro[3.5]nonan-7-yl)nicotinamide]	90 nM
CC(C)(C)NS(=O)(=O)c1cccc(NC(=O)c2ccc(N3CCOCC3)nc2N2CCC3(CC2)CC3)c1 [Example 102-7, N-(3-(N-(tert-butyl)sulfamoyl)phenyl)-6-morpholino-2-(6-azaspiro[2.5]octan-6-yl)nicotinamide]	238 nM
Cc1cncc(-c2cc(NC(=O)c3ccc(NC(C)(C)CO)nc3N3CCC4(CC3)CC4)ccc2C)c1 [Example 111-13, 6-((1-hydroxy-2-methylpropan-2-yl)amino)-N-(4-methyl-3-(5-methylpyridin-3-yl)phenyl)-2-(6-azaspiro[2.5]octan-6-yl)nicotinamide]	165 nM
CC(C)(C)NS(=O)(=O)c1cc(F)cc(NC(=O)c2ccc(NC(C)(C)CO)nc2N2CCC3(CC2)CC3)c1 [Example 105-21, N-(3-(N-(tert-butyl)sulfamoyl)-5-fluorophenyl)-6-((1-hydroxy-2-methylpropan-2-yl)amino)-2-(6-azaspiro[2.5]octan-6-yl)nicotinamide]	108 nM
CCNc1ccc(C(=O)Nc2cccc(S(=O)(=O)C3CCCC3)c2)c(N2CCC3(CCC3)CC2)n1 [Example 103-23, N-(3-(cyclopentylsulfonyl)phenyl)-6-(ethylamino)-2-(7-azaspiro[3.5]nonan-7-yl)nicotinamide]	97 nM
O=C(Nc1cccc(S(=O)(=O)C2CCCC2)c1)c1ccncc1N1CCC2(CC1)CC2 [Example 114-1, N-(3-(cyclopentylsulfonyl)phenyl)-3-(6-azaspiro[2.5]octan-6-yl)isonicotinamide]	253 nM
CC(C)(CO)Nc1ccc(C(=O)Nc2cccc(S(=O)(=O)C(C)(C)C)c2)c(N2CCC3(CC2)CC3)n1 [Example 105-2, N-(3-(tert-butylsulfonyl)phenyl)-6-((1-hydroxy-2-methylpropan-2-yl)amino)-2-(6-azaspiro[2.5]octan-6-yl)nicotinamide]	80 nM
O=C(Nc1cccc(S(=O)(=O)C2CCCC2)c1)c1ccc(N[C@@H]2CCOC2)nc1N1CCC2(CC1)CC2 [Example 103-15, (R)-N-(3-(cyclopentylsulfonyl)phenyl)-2-(6-azaspiro[2.5]octan-6-yl)-6-((tetrahydrofuran-3-yl)amino)nicotinamide]	51 nM
CC1(C)CCN(c2ccc(C(=O)Nc3cccc(S(=O)(=O)NC(C)(C)C)c3)c(N3CCC4(CC3)CC4)n2)C1 [Example 102-1, N-(3-(N-(tert-butyl)sulfamoyl)phenyl)-6-(3,3-dimethylpyrrolidin-1-yl)-2-(6-azaspiro[2.5]octan-6-yl)nicotinamide]	196 nM
CC(C)(C)NS(=O)(=O)c1cccc(NC(=O)c2ccncc2N2CCC3(CC2)CC3)c1 [Example 114, N-(3-(N-(tert-butyl)sulfamoyl)phenyl)-3-(6-azaspiro[2.5]octan-6-yl)isonicotinamide]	114 nM
CC(C)(CO)Nc1ccc(C(=O)Nc2cccc(S(=O)(=O)C3(C)CCC3)c2)c(N2CCC3(CC2)CC3)n1 [Example 105-1, 6-((1-hydroxy-2-methylpropan-2-yl)amino)-N-(3-((1-methylcyclobutyl)sulfonyl)phenyl)-2-(6-azaspiro[2.5]octan-6-yl)nicotinamide]	77 nM
CC(C)(C)NS(=O)(=O)c1cccc(NC(=O)c2ccc(N3CCCC3(C)C)nc2N2CCC3(CC2)CC3)c1 [Example 102-3, N-(3-(N-(tert-butyl)sulfamoyl)phenyl)-6-(2,2-dimethylpyrrolidin-1-yl)-2-(6-azaspiro[2.5]octan-6-yl)nicotinamide]	342 nM
CC(C)(C)NS(=O)(=O)c1cccc(NC(=O)c2ccc(N[C@@H]3CCC[C@H]3O)nc2N2CCC3(CC2)CC3)c1 [Example 102-18, N-(3-(N-(tert-butyl)sulfamoyl)phenyl)-6-(((1R,2R)-2-hydroxycyclopentyl)amino)-2-(6-azaspiro[2.5]octan-6-yl)nicotinamide]	107 nM
CC(C)(C)NS(=O)(=O)c1cccc(NC(=O)c2ccc(NC(CO)CO)nc2N2CCC3(CC2)CC3)c1 [Example 106-2, N-(3-(N-(tert-butyl)sulfamoyl)phenyl)-6-((1,3-dihydroxypropan-2-yl)amino)-2-(6-azaspiro[2.5]octan-6-yl)nicotinamide]	109 nM
Cc1ccc(NC(=O)c2cccnc2N2CCC(C)(C)CC2)cc1S(=O)(=O)N1CCCCC1 [Example 100-9, 2-(4,4-dimethylpiperidin-1-yl)-N-(4-methyl-3-(piperidin-1-ylsulfonyl)phenyl)nicotinamide]	282 nM
Cc1ccc(NC(=O)c2ccc(NC(C)(C)CO)nc2N2CCC3(CC2)CC3)cc1-c1cc[nH]n1 [Example 111-3, 6-((1-hydroxy-2-methylpropan-2-yl)amino)-N-(4-methyl-3-(1H-pyrazol-3-yl)phenyl)-2-(6-azaspiro[2.5]octan-6-yl)nicotinamide]	342 nM
CC(C)(C)NS(=O)(=O)c1cccc(NC(=O)c2ccc(N[C@H]3COC[C@@H]3O)nc2N2CCC3(CC2)CC3)c1 [Example 102-20, N-(3-(N-(tert-butyl)sulfamoyl)phenyl)-6-(((3S,4R)-4-hydroxytetrahydrofuran-3-yl)amino)-2-(6-azaspiro[2.5]octan-6-yl)nicotinamide]	103 nM
O=C(Nc1cccc(S(=O)(=O)CC2CC2)c1)c1cccnc1N1CCC2(CC1)CC2 [Example 100-22, N-(3-((cyclopropylmethyl)sulfonyl)phenyl)-2-(6-azaspiro[2.5]octan-6-yl)nicotinamide]	910 nM
O=C(Nc1ccc(Cl)c(C(=O)N2CCCC(F)(F)C2)c1)c1ccncc1N1CCC2(CC1)CC2 [Example 115-2, N-(4-chloro-3-(3,3-difluoropiperidine-1-carbonyl)phenyl)-3-(6-azaspiro[2.5]octan-6-yl)isonicotinamide]	735 nM
CC(CO)(CO)Nc1ccc(C(=O)Nc2cccc(S(=O)(=O)C3CCCC3)c2)c(N2CCC3(CC2)CC3)n1 [Example 106-3, N-(3-(cyclopentylsulfonyl)phenyl)-6-((1,3-dihydroxy-2-methylpropan-2-yl)amino)-2-(6-azaspiro[2.5]octan-6-yl)nicotinamide]	39 nM
O=C(Nc1cccc(S(=O)(=O)N2CCC(F)(F)C2)c1)c1cccnc1N1CCC2(CC1)CC2 [Example 101-6, N-(3-((3,3-difluoropyrrolidin-1-yl)sulfonyl)phenyl)-2-(6-azaspiro[2.5]octan-6-yl)nicotinamide]	581 nM
Cc1ccc(NC(=O)c2ccc(NC3(CO)CC3)nc2N2CCC3(CC2)CC3)cc1S(=O)(=O)C1CCCC1 [Example 105-10, N-(3-(cyclopentylsulfonyl)-4-methylphenyl)-6-((1-(hydroxymethyl)cyclopropyl)amino)-2-(6-azaspiro[2.5]octan-6-yl)nicotinamide]	58 nM
